Measurements reported in patent publication US8834848B2, “Flow and volume regulated inhalation for treatment of severe oral corticosteroid-dependent asthma” (Activaero GmbH Research & Development, priority 2009, dated 2014).

How the values were obtained:
[1] = test system: children with acute exacerbated asthma; conditions: nebulized; cited from earlier work
healthy volunteers = conditions: inhalation; cited from earlier work
[2] = test system: patients with chronic oral dependent asthma; conditions: cited from earlier work
[3] = test system: patients with severe chronic asthma; conditions: 500 or 1000 μg twice daily; cited from earlier work
asthma patients = conditions: cited from earlier work
[4] = test system: asthma in adults and children; conditions: 2000 μg once a day, AKITA protocol; cited from earlier work
chronic asthma = conditions: at half the daily dose of beclomethasone or budenoside; cited from earlier work
asthmatic children = conditions: 50 or 100 μg twice a day via dry powder inhaler; cited from earlier work
[5] = human, in vivo
Description: Thus the flow-controlled, slow inhalation at about 200 ml/sec enables maximum drug deposition in the target area of small airways. As further seen in FIG. 12, such inhalation method leads to an alveolar drug deposition of 40 to 50%. In contrast, alveolar deposition is below 10% when using a high inspiratory flow rate of 1000 ml/sec and a small inhalation volume of 350 ml, and it is 20-30% when using an inspiratory flow rate of 1000 ml/sec and an inhalation volume of 1800 ml. It is thus preferred to combine the controlled, slow flow rate of e.g. 200 ml/sec with higher inhalation volumes. As mentioned above, said inhalation volumes depend on the individual patient's lung function and the severity grade of the pulmonary disease, but in cooperation between physician and patient, a volume as high as is well tolerable for the patient can be chosen (see also Table 7).

[6] = after IV or inhalation administration; cited from earlier work
[7] = Clinical trial: budesonide serum concentration analysis; format: in vivo, human; conditions: baseline to week 18; roughly 12 hours dosing interval
Description: For budesonide serum concentration analysis, blood was drawn in all four investigated groups either before inhalation or 30-60 minutes following inhalation at baseline (post-inhalation) and at week 18 (pre- and post-inhalation). Results are seen in FIG. 10.

[8] = test system: oral steroid-dependent asthma subjects; conditions: nominal 4-8 mg daily, conventional nebulizer; cited from earlier work

CCC(=O)O[C@]1(C(=O)SCF)[C@H](C)C[C@H]2[C@@H]3C[C@H](F)C4=CC(=O)C=C[C@]4(C)[C@@]3(F)[C@@H](O)C[C@@]21C [fluticasone propionate]
efficacy compared to oral prednisolone [1]: at least as effective as oral prednisolone
relative lung dose, large volume (750 ml) spacer versus nebulizer (healthy volunteers): sevenfold
patients who discontinued the treatment ([2]; 4000 μg/day nebulized): 37%
reduction in the need for orally administered prednisone, 4000 μg versus 1000 μg per day ([2]; nebulized, bid): significantly greater
adverse effects [3]: topical adverse effects associated with inhaled corticosteroids were observed
oral corticosteroid-sparing effect [3]: eliminated a need for oral prednisone
reduction of need for oral prednisolone (asthma patients; 2000 μg per day versus 1500 or 1000 μg/day): more likely to reduce a need for oral prednisolone
hoarseness and oral candidiasis (asthma patients; higher doses): significantly greater
FEV1 improvement [4]: 17.1%
amount of administered dose that reached the central portion of the lungs (estimated) [4]: 500 to 700 µg
reduction in oral steroid use [4]: 33.2%
adverse side effects (chronic asthma): higher risk of pharyngitis and other adverse side effects
effect on FEV1 (chronic asthma): improvement of forced expiratory volume in the first second (FEV1)
patients reporting adverse effects (asthmatic children): 51%

CCCC1O[C@@H]2C[C@H]3[C@@H]4CCC5=CC(=O)C=C[C@]5(C)[C@H]4[C@@H](O)C[C@]3(C)[C@]2(C(=O)CO)O1 (stereo partly drawn) [budesonide]
alveolar drug deposition [5]: 40-50%
elimination half-life [6]: 2.2 to 4.5 h
accumulation of budesonide in serum [7]: did not accumulate in serum
subjects with side effects like oral thrush or disturbing sore throat [8]: 11%
